Measurements as given in the supplement of paper PMC4932681.

Key:
Assay in all cases: viability inhibition at highest dose (% inhibition); higher = more growth inhibition
BT-474 Tam1 = details: 4-OH-tamoxifen in medium 1 µM; 72 h
Method: (§1)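 Percent inhibition of viability (CellTiter-Glo, 72 h) at the highest tested concentration (D5), normalised to DMSO (0%) and 100 µM benzethonium chloride (100%). Resistant lines and the 'in 1µM tamoxifen' arms were tested in 1 µM 4-OH-tamoxifen.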

BT-474 Tam2 = details: 4-OH-tamoxifen in medium 1 µM; 72 h
Method: as §1

BT-474 = details: 72 h
Method: as §1

MCF-7 Tam1 = details: 4-OH-tamoxifen in medium 1 µM; 72 h
Method: as §1

MCF-7 = details: 72 h
Method: as §1

T-47D Tam1 = details: 4-OH-tamoxifen in medium 1 µM; 72 h
Method: as §1

T-47D Tam2 = details: 4-OH-tamoxifen in medium 1 µM; 72 h
Method: as §1

T-47D = details: 72 h
Method: as §1

ZR-75-1 Tam1 = details: 4-OH-tamoxifen in medium 1 µM; 72 h
Method: as §1

ZR-75-1 Tam2 = details: 4-OH-tamoxifen in medium 1 µM; 72 h
Method: as §1

ZR-75-1 = details: 72 h
Method: as §1

Row | SMILES | viability inhibition at highest dose (BT-474 Tam1) | viability inhibition at highest dose (BT-474 Tam2) | viability inhibition at highest dose (BT-474; 4-OH-tamoxifen in medium 0 µM) | viability inhibition at highest dose (BT-474; 4-OH-tamoxifen in medium 1 µM) | viability inhibition at highest dose (MCF-7 Tam1) | viability inhibition at highest dose (MCF-7; 4-OH-tamoxifen in medium 0 µM) | viability inhibition at highest dose (MCF-7; 4-OH-tamoxifen in medium 1 µM) | viability inhibition at highest dose (T-47D Tam1) | viability inhibition at highest dose (T-47D Tam2) | viability inhibition at highest dose (T-47D; 4-OH-tamoxifen in medium 0 µM) | viability inhibition at highest dose (T-47D; 4-OH-tamoxifen in medium 1 µM) | viability inhibition at highest dose (ZR-75-1 Tam1) | viability inhibition at highest dose (ZR-75-1 Tam2) | viability inhibition at highest dose (ZR-75-1; 4-OH-tamoxifen in medium 0 µM) | viability inhibition at highest dose (ZR-75-1; 4-OH-tamoxifen in medium 1 µM)
1 | CC(C)C[C@H](NC(=O)[C@@H](COC(C)(C)C)NC(=O)[C@H](Cc1ccc(O)cc1)NC(=O)[C@H](CO)NC(=O)[C@H](Cc1c[nH]c2ccccc12)NC(=O)[C@H](Cc1cnc[nH]1)NC(=O)[C@@H]1CCC(=O)N1)C(=O)N[C@@H](CCCNC(=N)N)C(=O)N1CCC[C@H]1C(=O)NNC(N)=O [Goserelin acetate] (drug 10000 nM) | 4.09 | 3.49 | -9.97 | -17.3 | -8.86 | -35 | 2.51 | 3.41 | 13 | -9.98 | -8.33 | 3.63 | -3.44 | -9.52 | -3.92
2 | CO[C@H]1C[C@@H]2CC[C@@H](C)[C@@](O)(O2)C(=O)C(=O)N2CCCC[C@H]2C(=O)O[C@H]([C@H](C)C[C@@H]2CC[C@@H](OCCO)[C@H](OC)C2)CC(=O)[C@H](C)/C=C(\C)[C@@H](O)[C@@H](OC)C(=O)[C@H](C)C[C@H](C)/C=C/C=C/C=C/1C [Everolimus] (drug 100 nM) | 22.1 | 15.8 | 15.8 | 11.4 | 15.6 | 47.5 | 34.3 | 28.2 | 25.9 | 29.1 | 24 | 34.2 | 38.4 | 35.9 | 32.7
3 | CC(C)(C#N)c1cc(Cn2cncn2)cc(C(C)(C)C#N)c1 [Anastrozole] (drug 10000 nM) | -0.566 | -3.02 | -8.01 | -8.68 | -5.71 | -4.15 | -2.23 | -5.37 | 2.94 | -9.21 | -3.66 | -5.43 | -10.2 | -9.38 | -3.76
4 | Clc1ccc(Nc2nnc(Cc3ccncc3)c3ccccc23)cc1 [Vatalanib] (drug 10000 nM) | 10.7 | 10.3 | -9.23 | 0.775 | -1.69 | -22.9 | 8.24 | 26.3 | 7.23 | -9.2 | -8.84 | -0.807 | 6.59 | -6.3 | -2.47
5 | C[C@]12O[C@H](C[C@]1(O)CO)n1c3ccccc3c3c4c(c5c6ccccc6n2c5c31)CNC4=O [Lestaurtinib] (drug 1000 nM) | 46.3 | 24.5 | 10.1 | 42.1 | 21.2 | 21.4 | 9.26 | -16.2 | -5.08 | -13.3 | 19.6 | 1.32 | 12.4 | 8.87 | 8.3
